Assays:
Human TASK-1 channels = Human TASK-1 channels (UniProt O35111); assay: Activity on the TASK-1 channel: two-microelectrode voltage clamp on Xenopus oocytes expressing TASK-1; type: cell-based; settings: TASK-1 expressed in Xenopus oocytes, room temperature, Hill equation; read-out: mTask-1 IC-50
Human Kv1.5 channels = molecular target: T1, Human Kv1.5 channels (Homo sapiens, UniProt P22460); assay: Activity on the Kv1.5 channel: two-microelectrode voltage clamp on Xenopus oocytes expressing Kv1.5; type: cell-based; settings: human Kv1.5 expressed in Xenopus oocytes, room temperature, Hill equation; read-out: Kv1.5 IC-50
T1 construct: expressed in transfected cells; host or cells: Xenopus laevis oocytes injected with RNA synthesized in vitro
Description: Determination of the Activity on the Kv1.5 Channel
Human Kv1.5 channels were expressed in xenopus oocytes. For this purpose, firstly oocytes were isolated from Xenopus laevis and defolliculated. Kv1.5-encoding RNA synthesized in vitro was then injected into these oocytes. After Kv1.5 protein expression for 1-7 days, Kv1.5 currents were measured on the oocytes using the two-microelectrode voltage clamp technique. The Kv1.5 channels were in this case usually activated with voltage jumps lasting 500 ms to 0 mV and 40 mV. A solution of the following composition flowed through the bath: NaCl 96 mM, KCl 2 mM, CaCl2 1.8 mM, MgCl2 1 mM, HEPES 5 mM (titrated to pH 7.4 with NaOH). These experiments were carried out at room temperature. The following were employed for data acquisition and analysis: Geneclamp amplifier (Axon Instruments, Foster City, USA) and MacLab D/A converter and software (ADInstruments, Castle Hill, Australia). The substances of the invention were tested by adding them in various concentrations to the bath solution. The effects of the substances were calculated as percent inhibition of the Kv1.5 control current which was obtained when no substance was added to the solution. The data were then extrapolated using the Hill equation in order to determine the inhibitory concentrations IC50 for the respective substances.

T1 sequence (P22460 whole entry): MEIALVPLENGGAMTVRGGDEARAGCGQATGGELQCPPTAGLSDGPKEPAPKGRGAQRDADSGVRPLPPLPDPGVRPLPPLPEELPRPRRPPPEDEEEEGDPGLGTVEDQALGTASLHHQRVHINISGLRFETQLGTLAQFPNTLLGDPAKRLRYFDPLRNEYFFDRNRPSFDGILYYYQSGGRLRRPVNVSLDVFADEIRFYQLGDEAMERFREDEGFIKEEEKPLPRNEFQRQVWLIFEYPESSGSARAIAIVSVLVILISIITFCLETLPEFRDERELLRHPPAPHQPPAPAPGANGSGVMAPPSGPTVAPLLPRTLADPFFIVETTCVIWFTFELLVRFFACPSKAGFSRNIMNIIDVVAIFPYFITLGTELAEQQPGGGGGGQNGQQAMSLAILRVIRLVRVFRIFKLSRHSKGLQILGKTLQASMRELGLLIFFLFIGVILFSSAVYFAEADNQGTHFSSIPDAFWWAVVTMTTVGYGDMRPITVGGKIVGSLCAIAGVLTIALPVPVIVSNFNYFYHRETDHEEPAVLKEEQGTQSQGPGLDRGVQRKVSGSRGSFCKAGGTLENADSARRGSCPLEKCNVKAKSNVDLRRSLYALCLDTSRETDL

IC50 (Human TASK-1 channels) [nM] | IC50 (Human Kv1.5 channels) [nM] | Compound
400 | 4200 | N#Cc1ccc(O[C@@H](c2cccc3cccnc23)[C@@H](c2ccc(F)cc2)N2CCCC2=O)cc1 (racemic) [Example 9, 4-[(1S′,2R′)-2-(4-Fluorophenyl)-2-(2-oxopyrrolidin-1-yl)-1-quinolin-8-ylethoxy]benzonitrile]
5400 | 1500 | CO[C@H](c1ccc(Cl)cc1)[C@H](c1ccccc1)N1CCCC1=O (racemic) [Example 46]

From patent US7825264B2, “Substituted heterocycles, their use as medicament, and pharmaceutical preparations comprising them” (sanofi-aventis, priority 2005, dated 2010)
